The values below come from patent US7019034B2, “Compositions and methods for reducing serum glucose and triglyceride levels in diabetic mammals” (Allergan, Inc., priority 2003, dated 2006).

Each structure is given as a SMILES string. pEC50, pKi: −log10 of the molar value.

In general, pKi refers to the negative decadic logarithm of the Ki, by convention in mol/L. One may read the pEC50 as the negative decadic logarithm of the EC50, by convention in mol/L.

For one experiment, the target named is T1, RXRα (Homo sapiens, UniProt P19793).
T1 construct: expressed in transfected cells
T1 sequence (P19793 1-462): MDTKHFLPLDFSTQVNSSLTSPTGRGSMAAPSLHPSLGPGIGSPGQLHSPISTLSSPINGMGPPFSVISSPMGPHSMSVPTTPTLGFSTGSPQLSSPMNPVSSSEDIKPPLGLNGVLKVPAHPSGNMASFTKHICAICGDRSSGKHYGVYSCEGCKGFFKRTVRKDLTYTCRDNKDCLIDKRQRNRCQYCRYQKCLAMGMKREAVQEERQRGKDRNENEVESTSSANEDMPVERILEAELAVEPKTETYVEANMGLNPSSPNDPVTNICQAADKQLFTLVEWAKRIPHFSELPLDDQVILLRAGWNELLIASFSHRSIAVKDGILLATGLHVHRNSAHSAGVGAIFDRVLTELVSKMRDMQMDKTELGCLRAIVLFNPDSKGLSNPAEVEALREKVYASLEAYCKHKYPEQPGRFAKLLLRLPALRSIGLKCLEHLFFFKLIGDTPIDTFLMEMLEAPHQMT
The experiment in a line: ligand binding assay, RXRα. The settings on record: read-out: RXR Bind Ki α. From the text: (§1) A holoreceptor transactivation assay and a ligand binding assay which measure the antagonist/agonist like activity of the compounds of the invention, or their ability to bind to the several retinoid receptor subtypes, respectively, are described in published PCT Application No. WO WO93/11755 (particularly on pages 30–33 and 37–41) published on Jun. 24, 1993, the specification of which is also incorporated herein by reference. […] The results obtained in this assay are expressed in EC50 numbers, as they are also in the chimeric receptor transactivation assay. The results of the ligand binding assay are expressed in Ki numbers. (See Cheng et al. Biochemical Pharmacology Vol. 22 pp 3099–3108, expressly incorporated herein by reference.)
(§2) In Table 1 NA stands for not active at all as an agonist. ND stands for not determined. The first row of numbers pertaining to each compound is the measured EC50 number. […] The third row of numbers pertaining to each compound is the binding Ki number.

Experiment [1] deals with T2, RARβ (Homo sapiens, UniProt P10826).
T2 sequence (P10826 183-417 limits assumed): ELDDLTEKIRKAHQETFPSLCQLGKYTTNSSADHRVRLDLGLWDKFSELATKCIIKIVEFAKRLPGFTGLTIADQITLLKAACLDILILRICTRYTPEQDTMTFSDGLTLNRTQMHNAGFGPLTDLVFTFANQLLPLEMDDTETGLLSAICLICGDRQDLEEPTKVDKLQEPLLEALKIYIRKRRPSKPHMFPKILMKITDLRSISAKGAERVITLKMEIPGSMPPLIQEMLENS
The experiment in a line: chimeric receptor transactivation assay, RARβ. It counts as cell-based. The settings on record: for pEC50: NA = not active at all as an agonist, read-out: RAR Trans. EC50 β; for RAR β efficacy in percentage as compared to the standard compound: number in brackets.
Description: The specification of U.S. Pat. No. 5,455,265 is hereby expressly incorporated by reference.
Table 1 discloses the activity of certain exemplary compounds of the invention in the above-described receptor transactivation and binding assays. Particularly, the transactivation data pertaining to activation of the RAR receptors were obtained in the chimeric assay, and the transactivation data pertaining to the activation of RXR receptors were obtained in the holoreceptor assay.
Efficacy in a transactivation assay is expressed as a percentage of the maximum potency attained by the compound compared to a standard which, in this case, is the compound named (2E,4E,1′S,2′S)-3-methyl-5-[2′-methyl-2′-(5,5,8,8-tetramethyl-5,6,7,8-tetrahydro-naphthalen-2-yl)-cyclopropyl]-penta-2,4-dienoic acid.
as §2

In the next experiment the target is T3, RARα (Homo sapiens, UniProt P10276).
T3 sequence (P10276 1-462): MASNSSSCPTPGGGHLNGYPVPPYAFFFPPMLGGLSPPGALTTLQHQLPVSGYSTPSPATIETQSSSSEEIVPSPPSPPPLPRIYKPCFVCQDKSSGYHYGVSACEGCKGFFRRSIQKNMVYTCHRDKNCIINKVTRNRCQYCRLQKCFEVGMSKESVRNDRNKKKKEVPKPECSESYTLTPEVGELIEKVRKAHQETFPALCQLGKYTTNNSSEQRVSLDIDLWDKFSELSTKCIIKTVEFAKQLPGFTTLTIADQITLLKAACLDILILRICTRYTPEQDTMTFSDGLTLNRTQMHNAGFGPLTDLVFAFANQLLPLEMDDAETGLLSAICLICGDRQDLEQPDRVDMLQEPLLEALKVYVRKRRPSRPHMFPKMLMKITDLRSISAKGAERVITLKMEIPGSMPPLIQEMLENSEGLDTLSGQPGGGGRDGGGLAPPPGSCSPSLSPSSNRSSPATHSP
The experiment in a line: ligand binding assay, RARα. The settings on record: read-out: RAR Bind. Ki α.
Description: as §1, §2

In experiment [2] the target is T4, RARβ (Homo sapiens, UniProt P10826).
T4 sequence (P10826 1-455): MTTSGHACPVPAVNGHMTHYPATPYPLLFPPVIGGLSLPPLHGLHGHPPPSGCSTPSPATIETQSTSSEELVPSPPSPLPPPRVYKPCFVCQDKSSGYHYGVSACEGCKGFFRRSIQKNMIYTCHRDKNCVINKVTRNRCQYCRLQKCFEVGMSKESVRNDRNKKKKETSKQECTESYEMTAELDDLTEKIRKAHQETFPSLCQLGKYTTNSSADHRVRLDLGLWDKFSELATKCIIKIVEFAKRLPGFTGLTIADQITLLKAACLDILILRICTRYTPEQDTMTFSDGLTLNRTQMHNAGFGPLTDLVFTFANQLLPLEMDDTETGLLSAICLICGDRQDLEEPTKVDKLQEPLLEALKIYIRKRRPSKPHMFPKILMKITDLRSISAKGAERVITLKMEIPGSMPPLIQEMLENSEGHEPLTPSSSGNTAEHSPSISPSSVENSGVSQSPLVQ
The experiment in a line: ligand binding assay, RARβ. The settings on record: read-out: RAR Bind. Ki β.
Description: as §1, §2

The target in a further experiment is T5, RXRβ (UniProt P28704).
T5 sequence (P28704 1-520): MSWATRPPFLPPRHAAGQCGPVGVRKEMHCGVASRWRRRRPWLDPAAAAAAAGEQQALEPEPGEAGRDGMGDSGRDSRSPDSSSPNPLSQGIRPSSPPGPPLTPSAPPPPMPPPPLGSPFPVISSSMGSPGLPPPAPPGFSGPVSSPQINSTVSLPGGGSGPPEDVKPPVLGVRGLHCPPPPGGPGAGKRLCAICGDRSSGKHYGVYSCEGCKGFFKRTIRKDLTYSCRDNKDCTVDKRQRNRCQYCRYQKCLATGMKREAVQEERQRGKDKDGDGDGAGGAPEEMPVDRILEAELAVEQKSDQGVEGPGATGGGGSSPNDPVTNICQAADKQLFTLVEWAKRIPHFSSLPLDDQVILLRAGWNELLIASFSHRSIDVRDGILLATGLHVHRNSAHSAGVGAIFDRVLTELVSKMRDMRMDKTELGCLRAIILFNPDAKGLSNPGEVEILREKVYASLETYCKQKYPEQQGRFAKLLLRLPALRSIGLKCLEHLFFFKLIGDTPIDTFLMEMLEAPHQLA
The experiment in a line: ligand binding assay, RXRβ. The settings on record: read-out: RXR Bind Ki β.
Description: as §1, §2

Take `CCCOc1cc2c(cc1\C(C)=C(F)/C=C/C(C)=C/C(=O)O)C(C)(C)CCC2(C)C` [Compound 4]: the pKi on RXRα was 8.22; at RARα, 6.23; at RARβ [2] it was 6.31; on RXRβ, 7.24. Moreover, at RARβ [1], the pEC50 is 6.73. At RARβ [1], the “RAR β efficacy in percentage as compared to the standard compound” value was 16%.

For the molecule `CCOc1cc2c(cc1\C(CC)=C(F)/C=C/C(C)=C/C(=O)O)C(C)(C)CCC2(C)C` [Compound 2, (2E,4E,6E)-7-(3-Ethoxy-5,5,8,8-tetramethyl-5,6,7,8-tetrahydronaphthalen-2-yl)-6-fluoro-3-methylnona-2,4,6-trienoic acid], the pKi on RXRα was 7.66; at RARα it was 6.82; at RARβ [2], 6.27; on RXRβ, 7.64. Further, the negative-log EC50 (pEC50) at RARβ [1] is 6.60. For the same molecule, the “RAR β efficacy in percentage as compared to the standard compound” value at RARβ [1] was found to be 11%.
